{"source": "paper PMC6123649", "about": "“Structural basis for specific inhibition of the highly sensitive ShHTL7 receptor” (EMBO Reports, 2018)", "key": {"ShHTL7‐L143Y": {"system": "ShHTL7‐L143Y", "assay": "YLG hydrolysis assay", "type": "biochemical, Striga hermonthica", "protocol": "In vitro YLG hydrolysis assays were performed using 3 μM of ShHTL7, ShHTL7‐L143Y, AtD14, and OsD14 in a reaction buffer (1× PBS) with 0.1% dimethyl sulfoxide (DMSO) in a 100 μl volume on a 96‐well black plate (Greiner). The fluorescent intensity was measured by SpectraMax i3 (Molecular Devices) using an excitation wavelength of 480 nm and a detection wavelength of 520 nm. ShHTL7, ShHTL7‐L143Y, AtD14, and OsD14 were mixed with Triton X‐100, using serial dilutions to cover the Triton X‐100 concentration range from 5 μM until 4.87 nM. Protein‐Triton mixes were pre‐incubated for 30 min. 1 μM YLG (Tokyo Chemical Industry Co. Ltd.) was then added, and the assay was incubated for 60 min. The change in fluorescence observed over the course of 1 h incubation of YLG in buffer without protein was subtracted from the data collected in the presence of protein. The resulting relative fluorescence values were analyzed. The inhibitory curves and IC50 values were plotted using GraphPad (Prism 6) four‐parameter logistic curve. The rate of YLG hydrolysis by ShHTL7 was recorded following the above method at 10‐min interval for 2 h."}, "ShHTL7": {"molecular_target": "T1, ShHTL7 (Striga hermonthica, UniProt A0A0M3PNA2)", "T1 sequence (A0A0M3PNA2 1-271)": "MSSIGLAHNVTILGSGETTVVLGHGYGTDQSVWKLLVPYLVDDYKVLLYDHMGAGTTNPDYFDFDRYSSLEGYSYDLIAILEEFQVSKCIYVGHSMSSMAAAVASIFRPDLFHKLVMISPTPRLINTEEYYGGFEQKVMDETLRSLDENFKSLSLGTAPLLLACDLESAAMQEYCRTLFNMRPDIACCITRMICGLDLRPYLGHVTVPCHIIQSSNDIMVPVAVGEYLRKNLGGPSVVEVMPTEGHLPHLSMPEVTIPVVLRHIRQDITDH", "assay": "Differential static light scattering (DSLS), aggregation temperature", "type": "binding", "protocol": "(§1) The specific aggregation temperature, T agg, at which ShHTL7, ShHTL7L143Y, AtD14, and OsD14 aggregated in the presence or absence of Triton X‐100, GR24, and PAA was measured using DSLS on the Stargazer system (Harbinger Biotechnology and Engineering Corporation, Markham, Canada). Protein samples at a concentration of 10 μM were overlaid with mineral oil in a clear bottom 384‐well black plate (Corning) and heated from 20 to 95°C at 1°C/min; light scattering was detected by a CCD camera every 0.5°C in the presence or absence of varying concentrations of Triton X‐100, GR24, and PAA yielding the difference in aggregation temperature at a particular concentration from apoproteins (ΔT agg). Data were normalized, and ΔT agg plotted against the Triton X‐100, GR24, and PAA concentration. Resulting data were plotted to determine the change in T agg of all proteins when bound to Triton X‐100, GR24, and PAA using GraphPad (Prism 6)."}, "AtD14": {"molecular_target": "T2, AtD14 (Arabidopsis thaliana, UniProt Q9SQR3)", "T2 construct": "made in house; host or cells: E. coli BL21 (DE3)", "T2 sequence (Q9SQR3 1-267)": "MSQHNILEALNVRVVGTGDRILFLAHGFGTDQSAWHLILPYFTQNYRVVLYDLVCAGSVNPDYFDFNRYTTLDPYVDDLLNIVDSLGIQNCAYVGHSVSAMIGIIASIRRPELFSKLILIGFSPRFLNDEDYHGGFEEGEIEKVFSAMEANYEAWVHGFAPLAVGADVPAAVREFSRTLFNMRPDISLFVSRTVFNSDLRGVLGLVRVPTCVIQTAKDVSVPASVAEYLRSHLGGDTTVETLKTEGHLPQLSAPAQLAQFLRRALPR", "assay": "DSLS, aggregation temperature", "type": "binding", "conditions": "up to 100 μM of Triton", "protocol": "as §1"}, "OsD14": {"molecular_target": "T3, OsD14 (Oryza sativa subsp. japonica, UniProt Q10QA5)", "T3 construct": "made in house; host or cells: E. coli BL21 (DE3)", "T3 sequence (Q10QA5 1-318)": "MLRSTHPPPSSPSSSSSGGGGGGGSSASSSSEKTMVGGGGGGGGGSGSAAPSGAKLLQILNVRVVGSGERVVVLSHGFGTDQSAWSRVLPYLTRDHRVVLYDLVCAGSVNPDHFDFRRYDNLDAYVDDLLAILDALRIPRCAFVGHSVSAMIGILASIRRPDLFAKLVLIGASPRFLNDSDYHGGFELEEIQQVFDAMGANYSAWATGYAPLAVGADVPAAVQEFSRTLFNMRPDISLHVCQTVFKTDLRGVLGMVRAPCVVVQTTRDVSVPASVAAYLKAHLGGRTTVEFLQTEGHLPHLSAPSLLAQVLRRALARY", "assay": "DSLS, aggregation temperature", "type": "binding", "conditions": "up to 100 μM of Triton", "protocol": "as §1"}, "Orobanche cumana": {"system": "Orobanche cumana", "set-up": "method as in PMID 23915294", "conditions": "concentrations above 0.001%; cited from earlier work"}, "Orobanche minor": {"system": "Orobanche minor", "set-up": "method as in PMID 23915294", "conditions": "concentrations above 0.001%; cited from earlier work"}}, "note": "Entries after “also recorded” stand apart in the source; their conditions may differ.", "data": [{"substance": "Triton X-100", "values": [{"measurement": "inhibition of hydrolysis activity of ShHTL7 L143Y", "setting": "ShHTL7‐L143Y", "value": "did not inhibit"}, {"measurement": "effect on ShHTL7 aggregation temperature (T agg)", "setting": "ShHTL7; 10 μM protein, varying compound concentrations", "value": "increases; also recorded: stabilized"}, {"measurement": "effect of Triton pre‐incubation on GR24-induced T agg changes in ShHTL7", "setting": "ShHTL7; pre‐incubation with Triton, then GR24", "value": "efficiently blocked"}, {"measurement": "effect on T agg", "setting": "AtD14", "value": "failed to affect"}, {"measurement": "effect on T agg", "setting": "OsD14", "value": "failed to affect"}, {"measurement": "effect on seed germination", "setting": "Orobanche cumana", "value": "hindered seed germination"}, {"measurement": "effect on seed germination", "setting": "Orobanche minor", "value": "hindered seed germination"}]}]}
